The target in data set [1] is T1, FXR (FXR HEK 293T DA cell line) (Homo sapiens, UniProt Q96RI1).
T1 construct: expressed in transfected cells; host or cells: HEK 293T (FXR HEK 293T DA)
Put plainly: FXR cell experiment (β-lactamase reporter gene, GeneBLAzer).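 On FXR cell activity Efficacy: Emax relative to maximal signal of reference agonist chenodeoxycholic acid (CDCA).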 The format is cell-based. The conditions noted are these: for EC50: FXR HEK 293T DA cells, β-lactamase reporter, 16 hours; for Emax: HEK-293T, read-out: FXR cell activity Efficacy. The method, then:
Compound Dilution: The compound to be tested was prepared as a 100 μM DMSO solution, and then the compound was diluted 3-fold to 10 concentration points. The reference compound was prepared as a 100 μM DMSO solution, and then diluted 1.3-fold to 10 concentration points. The diluted DMSO solution was added to the wells of a 384-well plate in a volume of 200 nL per well. 2. […] The 384-well microplate was incubated at 37° C., 5% CO2 for 16 hours. 4. 6 μL of 1 mM LiveBLAzer™-FRET B/G (CCF4-AM) substrate was mixed with 60 μL of B solution and 934 μL of C solution, and added to the wells of the 384-well plate in a volume of 8 μL per well. […] The 384-well microplate was incubated in dark for 2 hours at room temperature. 6. […] 7.
(In general: A reporter such as luciferase makes a cellular process visible.)

The target in data set [2] is T2, Glutathione-S-transferase-labeled FXR human protein (Homo sapiens, UniProt Q96RI1).
T2 construct: purchased Invitrogen
T2 sequence (Q96RI1 1-486): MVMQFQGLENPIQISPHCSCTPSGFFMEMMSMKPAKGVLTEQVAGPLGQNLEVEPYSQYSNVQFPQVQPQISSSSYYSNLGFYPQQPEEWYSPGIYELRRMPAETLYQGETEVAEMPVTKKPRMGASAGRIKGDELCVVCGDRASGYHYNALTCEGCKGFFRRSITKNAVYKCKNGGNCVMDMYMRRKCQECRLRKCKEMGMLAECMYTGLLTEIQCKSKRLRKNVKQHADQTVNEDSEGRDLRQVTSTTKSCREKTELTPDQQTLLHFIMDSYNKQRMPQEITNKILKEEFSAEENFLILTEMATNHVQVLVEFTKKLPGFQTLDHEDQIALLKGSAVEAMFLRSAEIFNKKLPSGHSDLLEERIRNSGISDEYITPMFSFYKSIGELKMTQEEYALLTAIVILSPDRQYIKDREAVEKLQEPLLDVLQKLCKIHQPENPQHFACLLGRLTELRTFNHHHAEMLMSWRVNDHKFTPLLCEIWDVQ
Nature of the data set: FXR biochemical experiment (AlphaScreen, coactivator recruitment). Particulars: for EC50: AlphaScreen, GST-FXR human protein + biotin-labeled steroid receptor coactivator, read-out: FXR enzyme activity EC50; for Emax: ratio of highest signal of the compound to that of the reference compound, read-out: FXR enzyme activity Efficacy. The protocol:
FXR Biochemical Experiment Experimental Purpose: The activation effect of the compound on FXR binding reaction was detected by AlphaScreen. […] Protein: Glutathione-S-transferase-labeled FXR human protein (Invitrogen) 2. Co-activator: Biotin-labeled steroid receptor coactivator (Anaspec) 3. […] Compound Dilution: The compound to be tested was prepared as a 40 μM DMSO solution, and then diluted 3-fold to 10 concentration points. The reference compound was prepared as a 400 μM DMSO solution, and then diluted 1.5-fold to 10 concentration points. The diluted DMSO solution was added to the wells of a 384-well plate in a volume of 150 nL per well. 2. […] 4. […] The operation during the experimental process was protected from light. The incubation was performed for 1 hour at room temperature. 5. […] The operation during the experimental process was protected from light. The incubation was performed for 1 hour at room temperature. 6. EC50 test: Envision was used with excitation at 680 nm to read the […] signals at 520-620 nm. 7. Analytical data: The data were analyzed via using Prism 5.0, and the EC50 values of the activation effects of the compounds were calculated.

Data set [3] in a line: Liver-blood ratio experiment of mice via cassette dosing. It is filed as in vivo, mice (C57BL/6J). The conditions noted are these: for Concentration in liver / Concentration in plasma / Concentration ratio of liver to plasma: oral cassette 2 mg/kg. The method, then: Liver-Blood Ratio Experiment of Mice Via Cassette Dosing
6 male mice (C57BL/6J) were grouped as an oral administration group. 5 kinds of the developed drugs were contained in the formulation, and intragastrical administration was performed at a dose of 2 mg/kg/compound (the vehicle was 0.5% HPMC aqueous solution). The five compounds were firstly and respectively dissolved in the vehicle, and sonicated or whirled to form a 1 mg/mL solution (clear solution or suspension), respectively; and then the solutions of the five compound were mixed in equal volumes (1:1:1:1:1, v:v:v:v:v) into a glass bottle. After intragastrical oral administration, plasma and liver tissue samples were collected from 3 animals at 0.5 h after administration; corresponding samples were collected from the other 3 animals at 3 h after administration. After collection, the liver tissue was homogenized by using ice-cold homogenization buffer (methanol:15 mM PBS buffer (pH 7.4)=1:2, v:v) based on the ratio of liver weight:homogenization buffer volume=1:3. Plasma and liver tissue samples were analyzed by using a five-in-one LC-MS/MS analysis method developed in advance. The concentrations of plasma and liver tissue homogenate were obtained, and the concentration ratios of liver tissue to plasma were calculated by using Excel.

T1 sequence (Q96RI1 with tags, fused parts or gaps limits assumed): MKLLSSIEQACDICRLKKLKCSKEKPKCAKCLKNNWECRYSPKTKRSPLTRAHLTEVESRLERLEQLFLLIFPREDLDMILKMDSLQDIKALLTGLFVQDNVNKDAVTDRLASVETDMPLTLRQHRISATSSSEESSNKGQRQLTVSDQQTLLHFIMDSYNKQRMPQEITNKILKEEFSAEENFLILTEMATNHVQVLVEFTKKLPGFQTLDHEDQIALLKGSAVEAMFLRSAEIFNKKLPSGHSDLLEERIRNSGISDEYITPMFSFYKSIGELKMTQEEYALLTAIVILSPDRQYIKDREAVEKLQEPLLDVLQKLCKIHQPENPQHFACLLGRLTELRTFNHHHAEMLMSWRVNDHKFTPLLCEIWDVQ

The term EC50 denotes the midpoint of the concentration-response curve. Consider `CC[C@H]1[C@@H](O)[C@@H]2[C@H](CC[C@]3(C)[C@@H]([C@H](C)CCOc4cc(C(=O)O)ccn4)CC[C@@H]23)[C@@]2(C)CC[C@@H](O)C[C@@H]12` [Example 9], for which, in data set [1], the EC50 was 140 nM and the Emax was 130%. Besides, in data set [2], the EC50 is 160 nM and the Emax stood at 407%.

Consider `CC[C@H]1[C@@H](O)[C@@H]2[C@H](CC[C@]3(C)[C@@H]([C@H](C)CCOc4cccc(C(=O)O)c4)CC[C@@H]23)[C@@]2(C)CC[C@@H](O)C[C@@H]12` [Example 7], for which, in data set [1], the midpoint of the response, the EC50, lay at 60 nM and the Emax was 140%. For the same molecule, in data set [2], the EC50 was 30 nM and the Emax came out at 360%.

For `CC[C@H]1[C@@H](O)[C@@H]2[C@H](CC[C@]3(C)[C@@H]([C@H](C)CCOc4ccc(C(=O)O)nc4)CC[C@@H]23)[C@@]2(C)CC[C@@H](O)C[C@@H]12` [Example 10], the figures for the EC50 in data set [1] and in data set [2] were 200 nM and 60 nM, respectively. Moreover, the Emax in data set [1] was 138%; in data set [2], 188%.

Take `CC[C@H]1[C@@H](O)[C@@H]2[C@H](CC[C@]3(C)[C@@H]([C@H](C)CCc4cccc(C(=O)O)c4)CC[C@@H]23)[C@@]2(C)CC[C@@H](O)C[C@@H]12` [Example 19]: in data set [1], a half-maximal response (EC50) required 370 nM and the Emax turned out to be 143%. For the same molecule, in data set [2], the EC50 amounted to 150 nM and the Emax was determined as 251%.

Regarding `CC[C@H]1[C@@H](O)[C@@H]2[C@H](CC[C@]3(C)[C@@H]([C@H](C)CCC(=O)O)CC[C@@H]23)[C@@]2(C)CC[C@@H](O)C[C@@H]12` [INT-747, reference compound], in data set [3] (0.5 h), the Concentration in liver is listed as 711 nM, the Concentration in plasma is reported as 151 nM and the “Concentration ratio of liver to plasma” value is recorded as 5. Further, in data set [3] (3 h), the Concentration in liver is 625 nM, the Concentration in plasma turned out to be 63 nM and the “Concentration ratio of liver to plasma” value came to 10.

As to `CC[C@H]1[C@@H](O)[C@@H]2[C@H](CC[C@]3(C)[C@@H]([C@H](C)CCCOc4ncc(C(=O)O)cc4Cl)CC[C@@H]23)[C@@]2(C)CC[C@@H](O)C[C@@H]12` [Example 40], in data set [2], the EC50 is 45 nM and the Emax was 197%.

Consider `CC[C@H]1[C@@H](O)[C@@H]2[C@H](CC[C@]3(C)[C@@H]([C@H](C)CCOc4ccc(C(=O)Nc5ccccc5)cn4)CC[C@@H]23)[C@@]2(C)CC[C@@H](O)C[C@@H]12` [Example 32], for which, in data set [2], the EC50 was 650 nM and the Emax stood at 140%.

`CC[C@H]1[C@@H](O)[C@@H]2[C@H](CC[C@]3(C)[C@@H]([C@H](C)CCOc4ccc(C(=O)NS(=O)(=O)C(C)C)cn4)CC[C@@H]23)[C@@]2(C)CC[C@@H](O)C[C@@H]12` [Example 30]: in data set [2], the EC50 turned out to be 56 nM and the Emax is 150%.

Take `CC[C@H]1[C@@H](O)[C@@H]2[C@H](CC[C@]3(C)[C@@H]([C@H](C)CCN4CC(C(=O)O)CCC4=O)CC[C@@H]23)[C@@]2(C)CC[C@@H](O)C[C@@H]12` (some centres unmarked) [Example 1]: in data set [1], the response was half-maximal at 17900 nM (EC50) and the Emax came out at 134%. In data set [2], the EC50 came to 900 nM and the Emax came to 320%.

`CC[C@H]1[C@@H](O)[C@@H]2[C@H](CC[C@]3(C)[C@@H]([C@H](C)CCN4CCC[C@H]4C(=O)O)CC[C@@H]23)[C@@]2(C)CC[C@@H](O)C[C@@H]12` [Example 3]: in data set [2], the EC50 was 2620 nM and the Emax stood at 106%.

On to `CC[C@H]1[C@@H](O)[C@@H]2[C@H](CC[C@]3(C)[C@@H]([C@H](C)CCOc4cnc(C(=O)O)nc4)CC[C@@H]23)[C@@]2(C)CC[C@@H](O)C[C@@H]12` [Example 12], for which, in data set [2], the half-maximal effective concentration (EC50) was found to be 70 nM and the Emax turned out to be 240%.

As for `CC[C@H]1[C@@H](O)[C@@H]2[C@H](CC[C@]3(C)[C@@H]([C@H](C)CCOc4cccnc4C(=O)O)CC[C@@H]23)[C@@]2(C)CC[C@@H](O)C[C@@H]12` [Example 16], in data set [2], the EC50 amounted to 310 nM and the Emax came to 247%.

Regarding `CC[C@H]1[C@@H](O)[C@@H]2[C@H](CC[C@]3(C)[C@@H]([C@H](C)CCOc4ccc(C(=O)NS(=O)(=O)c5ccccc5)cn4)CC[C@@H]23)[C@@]2(C)CC[C@@H](O)C[C@@H]12` [Example 31], in data set [2], the EC50 is 27 nM and the Emax was found to be 204%.

As to `CC[C@H]1[C@@H](O)[C@@H]2[C@H](CC[C@]3(C)[C@@H]([C@H](C)CCOc4ccccc4C(=O)O)CC[C@@H]23)[C@@]2(C)CC[C@@H](O)C[C@@H]12` [Example 8], the Emax in data set [2] is 264%.

In the case of `CC[C@H]1[C@@H](O)[C@@H]2[C@H](CC[C@]3(C)[C@@H]([C@H](C)CCOc4ncccc4C(=O)O)CC[C@@H]23)[C@@]2(C)CC[C@@H](O)C[C@@H]12` [Example 26], in data set [3] (0.5 h), the Concentration in liver is 3904 nM, the Concentration in plasma amounted to 387 nM and the “Concentration ratio of liver to plasma” value stood at 10. Also, in data set [3] (3 h), the Concentration in liver turned out to be 358 nM, the Concentration in plasma is given as 18 nM and the “Concentration ratio of liver to plasma” value is given as 20. In data set [3] (oral, same dosage, at 0.5 h), the “drug concentration in the liver compared with control compound” value was “higher”. Moreover, in data set [3] (oral, same dosage, at 0.5 h and 3 h), the “liver/blood concentration ratios compared with control compound” value is recorded as “higher”. Further, in data set [2], the EC50 stood at 130 nM and the Emax was determined as 280%.

In the case of `CC[C@H]1[C@@H](O)[C@@H]2[C@H](CC[C@]3(C)[C@@H]([C@H](C)CCOc4cccc(C(=O)O)n4)CC[C@@H]23)[C@@]2(C)CC[C@@H](O)C[C@@H]12` [Example 25], in data set [2], the EC50 was determined as 11 nM and the Emax was found to be 233%.

`CC[C@H]1[C@@H](O)[C@@H]2[C@H](CC[C@]3(C)[C@@H]([C@H](C)CCOc4ccc(C(=O)NC)cn4)CC[C@@H]23)[C@@]2(C)CC[C@@H](O)C[C@@H]12` [Example 33]: in data set [2], the EC50 came to 141 nM and the Emax amounted to 194%.

As for `CC[C@H]1[C@@H](O)[C@@H]2[C@H](CC[C@]3(C)[C@@H]([C@H](C)CCOc4ccc(C(=O)NCC(=O)O)cn4)CC[C@@H]23)[C@@]2(C)CC[C@@H](O)C[C@@H]12` [Example 39], in data set [2], the EC50 amounted to 20 nM and the Emax turned out to be 205%.

Regarding `CC[C@H]1[C@@H](O)[C@@H]2[C@H](CC[C@]3(C)[C@@H]([C@H](C)CCNc4cncc(C(=O)O)c4)CC[C@@H]23)[C@@]2(C)CC[C@@H](O)C[C@@H]12` [Example 43], in data set [2], the EC50 was 370 nM and the Emax turned out to be 193%.
